Data reported in patent publication US8367659B2, “Oxazinyl isoflavonoid compounds, medicaments and use” (Marshall Edwards, Inc., priority 2007, dated 2013).
Read-outs that look alike come from different tables or passages of the source. Marks after values point to notes of the source that are not given here.

Experiments:
[1] = tested on: PGE2 synthesis in RA-stimulated U937 cells; assay: PGE2 synthesis in RA-stimulated U937 cells; assay type: cell-based, human
Method: U937 cells were thawed and resuspended in RPM1 and 10% FCS at 2×10^5 cells per ml. The cells were incubated in 5% CO2 at 37° C. and expanded in growing culture to at least 6.4×10^7 total cells. The cells were then resuspended in fresh medium and cultured with […] (RA) at 2×10^5 cells per ml for a further 3 days (72 h). RA treated cells were washed 2× in serum-free RPM and resuspended in serum-free medium at 5×10^6 cells per ml. The cells were aliquotted into Teflon tubes at 1 ml per tube. Working stock solutions of each test compound were prepared at 0.1 mM, 1 mM and 10 mM as described above. For each test compound at each working dilution, 10 μl was added to 1 ml cells to achieve a final concentration of 0 (DMSO alone), 1, 10, and 100 μM for each test compound. Cells were incubated in triplicate with each concentration of test compound for 15 min at 37° C. After 15 min pre-incubation, each 1 ml tube of cells received 5 μl of a […] solution of the calcium ionophore A23187 (to achieve 0.5 μM A23187). Incubation at 37° C. was continued for a further 30 min. After incubation, supernatants were collected by centrifugation at 2000 rpm for 10 min and stored at −20° C. until required for assay.

HT29 = assay: Anti-cancer activity, HT-29 colon adenocarcinoma cells (MTT); assay type: cell-based; settings: Homo sapiens, HT-29, 120 h, 5 days, read-out: IC50 μM, HT29 Colorectal
[2] = tested on: neonatal foreskin fibroblasts (NFF); assay: Toxicity to normal cells, neonatal foreskin fibroblasts; assay type: cell-based; settings: Fibroblast
Method: IC50 values were determined for each cell line. Cells were seeded in 96-well plates at an appropriate cell density as determined from growth kinetics analysis and cultured for 5 days in the absence and presence of the test compounds. Cell proliferation was assessed after the addition of 20 μl of 3-4,5 dimethylthiazol-2,5-diphenyl tetrazolium bromide (MTT, 2.5 mg/ml in PBS, Sigma) for 3-4 hrs at 37° C. according to manufacturer's instructions. IC50 values were calculated from semi-log plots of % of control proliferation on the y-axis against log dose on the x-axis.
The neonatal foreskin fibroblasts (NFF) were a gift from Dr. Peter Parsons (Queensland Institute of Medical Research). Rabbit kidney (RK-13) cells were obtained from Miller Whalley (Macquarie University). Both cell lines were cultured in RPMI supplemented with 10% FCS(CSL, Australia), penicillin (100 U/ml), streptomycin ([…]), L-glutamine (2 mM) and sodium bicarbonate (1.2 g/L), and cultured at 37° C. in a humidified atmosphere of 5% CO2. IC50 values were determined as described above.

CP70 = assay: Anti-cancer activity, CP70 ovarian cancer cells (MTT); assay type: cell-based; settings: 120 h, 5 days
[3] = tested on: A7r5 rat aortic smooth muscle cells; assay: Proliferation of A7r5 rat aortic smooth muscle cells; assay type: cell-based; settings: A7R5, 72 h, three days, read-out: IC50, inhibition of proliferation in A7r5 cells
Method: The effect of test compounds on human umbilical vein smooth muscle cells (HUVSMC), was examined. Cells, tissue explants from a neonate (HRI—passage 2), were seeded into 96 well plates at 1×10^3 cells per well, and allowed to attach for 24 hours. They were then washed twice and incubated in medium without foetal calf serum (FCS) for 24-48 hours to serum-starve them. Test compounds were prepared in medium without FCS and added to the plates and incubated for one hour. Medium with FCS was added to give a final concentration of 10% and the plates incubated for 4-5 days until the controls were just confluent.
The effect of test compounds on rat aortic smooth muscle cell line (A7r5) and another cell line from the media of rat aorta (A10) was examined. The methodology was the same as for HUVSMC, except that the cells were treated with compound for three days.

PMA-induced ear oedema = assay: PMA-induced ear swelling in mice; assay type: in vivo, BALB/c mice; settings: 25 mg/kg i/p; 5 h after PMA
Method: Groups of 5-6 female BALB/c mice (ARC, WA, Australia), weighing 15-21 g were injected intraperitoneally (i/p) with test compound at 25 mg/kg delivered in polyethylene glycol (PEG) 400: phosphate buffered saline (PBS) 1:1 or ethanol: propanediol: PBS 4:9:7 either 30 min prior to or immediately before the inflammogen was applied to the ears. Mice were anaesthetised using isoflurane and baseline thickness of both ears was measured using a spring micrometer. Each mouse received a total of 20 μL of either AA in ethanol (50 mg/ml or 200 mg/ml) or PMA in either ethanol or acetone (0.2 mg/ml) applied to the inner and outer surfaces of each pinna (i.e. 0.5 mg or 2 mg AA or 2 μg PMA per ear). Mice were anaesthetised again to re-measure the ears at 1 h post-AA application and 5 h after PMA. The difference in ear swelling pre- and post-application of inflammogen for each ear was calculated, and the average for the two ears of each mouse taken. The difference in mean swelling of each test group compared to the group given vehicle alone was calculated using a general ANOVA using Dunnett's Multiple Comparison test when multiple compounds were tested in the one experiment or a two-tailed […] t-test when only one compound was tested (Prism 4, Graphpad Software). The data has been presented graphically as the mean percentage inhibition of oedema, calculated as: […]. Results

[4] = normal, non-transformed cells, read-out: IC50 μM, NFF Fibroblast
[5] = read-out: toxicity to normal fibroblast cell line / NFFs (IC50)

Oc1ccc(C2=Cc3cc4c(cc3OC2)OCN(Cc2ccccc2)C4)cc1 [Compound 1, 4-(3-Benzyl-2,3,4,8-tetrahydrochromeno[6,7-e][1,3]oxazin-7-yl)phenol]
PGE2 ([1]; test compound 1 μM, A23187): 1.431 ± 0.154 pg
PGE2 ([1]; test compound 10 μM, A23187): 0.702 ± 0.237 pg
PGE2 ([1]; test compound 100 μM, A23187): 0.555 ± 0.064 pg
IC50 (HT29): 20.6 ± 2.1 µM
IC50 [2, 4]: 15.1 µM
IC50 [2, 5]: ~15 µM
IC50 (CP70): 5.51 ± 2.6 µM
IC50 [3]: 23 µM
% Change compared with vehicle (PMA-induced ear oedema): −9%
Change in ear thickness (mean ± SD, × 0.01 mm) (PMA-induced ear oedema): 28.9 ± 3.1 × 0.01 mm

CC(c1ccccc1)N1COc2cc3c(cc2C1)C=C(c1ccc(O)cc1)CO3 (stereo not drawn) [Compound 2, 4-(3-(1-Phenylethyl)-2,3,4,8-tetrahydrochromeno[6,7-e][1,3]oxazin-7-yl)phenol]
effect on PGE2 synthesis [1]: inhibit PGE2 synthesis
PGE2 ([1]; test compound 1 μM, A23187): 1.303 ± 0.044 pg
PGE2 ([1]; test compound 10 μM, A23187): 0.948 ± 0.111 pg
PGE2 (pg) ([1]; test compound 100 μM, A23187): 0.158 ± 0.027^a pg
IC50 (HT29): 11.8 ± 0.7 µM
IC50 [2, 4]: 33.2 µM
IC50 [2, 5]: > 30 µM
IC50 (CP70): 8.1 ± 3 µM
% Change compared with vehicle (PMA-induced ear oedema): −3%
Change in ear thickness (mean ± SD, × 0.01 mm) (PMA-induced ear oedema): 30.9 ± 2.2 × 0.01 mm

Oc1cccc(C2=Cc3ccc(O)cc3OC2)c1 [Compound 37-DHE, 3′,7-dihydroxy-isoflav-3-ene, reference compound]
IC50 [3]: 45 µM
